Laboratory results reported in patent US9938510B2, “Photobacterium sp. alpha-2-6-sialyltransferase variants” (The Regents of the University of California, priority 2014, dated 2018).
Where a chain is given by its changes, count along the chain named. Names may count otherwise. Read-outs that look alike come from different tables or passages of the source.

Key:
[1] = test system: Photobacterium sp. JH-ISH-224 α2-6-sialyltransferase Psp26ST(15-501)-His6 A366G mutant, SEQ ID NO: 2; test: Sialyltransferase kinetics, Psp26ST(15-501)-His6 A366G mutant; assay type: biochemical; conditions: apparent
Procedure: Reactions were carried out in duplicate at 20° C. for 20 minutes in a total volume of 10 μL in a proper buffer at the optimal pH according to the pH profile of the wild-type enzyme (see, Ding, 2011, supra). When LacβMU was used as an acceptor, the conditions were: Tris-HCl buffer (200 mM, pH 8.0), enzyme (0.3 μM), varied concentrations of LacβMU (0.1, 0.25, 0.4, 1.0, 2.0, 4.0, and 6.0 mM) with a fixed concentration of CMP-Neu5Ac (1.0 mM) or varied concentrations of CMP-Neu5Ac (0.1, 0.25, 0.4, 1.0, 2.0, 4.0, and 6.0 mM) with a fixed concentration of LacβMU (1.0 mM). When GalNAcα2AA was used as an acceptor, the conditions were: NaOAc-HOAc buffer (200 mM, pH 5.0), enzyme (6 μM), varied concentrations of GalNAcα2AA (0.5, 0.8, 1.0, 2.0, 4.0, 8.0, and 10.0 mM) and a fixed concentration of CMP-Neu5Ac (4.0 mM) or varied concentrations of CMP-Neu5Ac (0.5, 1.0, 2.0, 4.0, 5.0, 8.0, and 10.0 mM) with a fixed concentration of GalNAcα2AA (1.0 mM). When GalNAcαSer was used as an acceptor, the conditions were: Tris-HCl buffer (200 mM, pH 8.0), enzyme (0.6 μM), varied concentrations of GalNAcαSer (0.1, 0.25, 0.5, 1.0, 2.0, 4.0, 8.0, and 10.0 mM) and a fixed concentration of CMP-Neu5Ac (2.0 mM). When GalNAcαThr was used as an acceptor, the conditions were: Tris-HCl buffer (200 mM, pH 8.0), enzyme (3.0 μM), varied concentrations of GalNAcαThr (0.5, 1.0, 2.0, 4.0, 10.0, 20.0, 40.0, 60.0 mM) and a fixed concentration of CMP-Neu5Ac (4.0 mM). Results analysis was performed using the HPLC system as described above for sialyltransferase activity assays. Apparent kinetic parameters were obtained by fitting the experimental data (the average values of duplicate assay results) into the Michaelis-Menten equation using Grafit 5.0.

[2] = test system: Photobacterium sp. JH-ISH-224 α2-6-sialyltransferase Psp26ST(15-501)-His6, wild type, SEQ ID NO: 23; conditions: apparent, cited from earlier work
[3] = substrate: CC(=O)N[C@H]1[C@H]([C@H](O)[C@H](O)CO)O[C@](OP(=O)(O)OC[C@H]2O[C@@H](n3ccc(N)nc3=O)[C@H](O)[C@@H]2O)(C(=O)O)C[C@@H]1O; test: Donor hydrolysis kinetics (CMP-Neu5Ac hydrolysis), Psp2,6ST(15-501)-His6 A235D mutant; assay type: biochemical, Photobacterium sp. JH-ISH-224; conditions: other: apparent, 20° C., 10 min, Tris-HCl pH 8.0
Procedure: (§1) Procedure for Kinetic Analysis of Donor Hydrolysis by His6-Pd2,6ST(16-497), Psp26ST(15-501)-His6 and its A235D and A366G Mutants
(§2) The kinetics study for the donor hydrolysis activity of His6-Pd2,6ST(16-497) was carried out at 37° C. for 20 min in Tris-HCl buffer (200 mM, pH 8.0). The kinetics study for the donor hydrolysis activities of Psp26ST(15-501)-His6 and its A235D mutant was carried out at 20° C. for 10 min in Tris-HCl buffer (200 mM, pH 8.0). All reactions were performed in duplicate in a total volume of 10 μL containing varied concentrations of CMP-Neu5Ac (10, 20, 40, 60, 80 and 100 mM) and the enzyme (6 μM). Reactions were stopped by adding 10 μL of ethanol and then centrifuged. The supernatants were analyzed by a P/ACETM capillary electrophoresis (CE) system equipped with a photodiode array (PDA) detector (Beckman Coulter, Inc., Fullerton, Calif.). CE conditions were as follows: 75 μm i.d. capillary, 25 KV/80μÅ, 5 s vacuum injections, monitored at 200 nm and 254 nm, the running buffer used was sodium tetraborate (25 mM, pH 9.4). Apparent kinetic parameters were obtained by fitting the experimental data (the average values of duplicate assay results) into the Michaelis-Menten equation using Grafit 5.0.

[4] = One-pot two-enzyme (OP2E) sialylation with NmCSS, GalNAcαThr as acceptor; assay type: biochemical; conditions: 2.5 equivalents of Neu5Ac and 5.0 equivalents of CTP
Source text: White bars: GalNAcαSer was used as an acceptor with 1 equivalent of Neu5Ac and 1.5 equivalents of CTP. Grey bars: GalNAcαSer was used as an acceptor with 2.5 equivalents of Neu5Ac and 5.0 equivalents of CTP. Black bars: GalNAcαThr was used as an acceptor with 2.5 equivalents of Neu5Ac and 5.0 equivalents of CTP.
In this system, CTP and Neu5Ac were used by NmCSS for the formation of CMP-Neu5Ac in situ (see also, Yu and Chen, et al. Bioorg. Med. Chem. 2004, 12, 6427-6435). CMP-Neu5Ac was used as the donor substrate for Psp26ST(15-501)-His6 or its mutants. […] For example, using 1 equivalent of Neu5Ac and 1.5 equivalents of CTP in the one-pot two-enzyme (OP2E) reaction (white bars in FIG. 6) improved the GalNAcαSer α2-6-sialylation reaction yields from less than 6% (1 equivalent CMP-Neu5Ac was used) (FIG. 5B) to 32-51% for W365A, W365G, W365S mutants. Similarly, the OP2E reaction improved the GalNAcαSer α2-6-sialylation reaction yields from 40% and 37% to 75% and 67% for A366G mutant and the wild-type enzyme, respectively. Increasing the concentrations of Neu5Ac and CTP to 2.5 and 5.0 equivalents further improved the reaction yields to more than 67% for Psp26ST(15-501)-His6 and its mutants ([…]). […] Therefore, in situ generation of CMP-Neu5Ac, the sugar nucleotide donor for sialyltransferases, was proven an efficient method to enhance the yields for sialylation reactions catalyzed not only by the wild-type enzymes but also sialyltransferase mutants.

[5] = Sialyltransferase activity assays, statements not tied to one acceptor (LacβMU, GalNAcα2AA, GalNAcαSer, GalNAcαThr); assay type: biochemical
Procedure: When LacβMU was used as an acceptor, the assay was performed in duplicate in 10 μL of Tris-HCl buffer (100 mM, pH 8.0) containing CMP-Neu5Ac (1 mM), LacβMU (1 mM), MgCl2 (20 mM), wild-type Psp2,6ST(15-501)-His6 or its mutant (0.3 μM). When an α-GalNAc-terminated acceptor was used, the assay was performed in duplicate in 10 μL of Tris-HCl buffer (100 mM, pH 8.0 for GalNAcαSer/Thr) or NaOAc-HOAc (100 mM, pH 5.0 for GalNAcα2AA) containing CMP-Neu5Ac (1.5 mM), the acceptor (1 mM), MgCl2 (20 mM), wild-type Psp2,6ST(15-501)-His6 or its mutant (3.0 μM). Reactions were allowed to proceed at 20° C. for 20 min and stopped by adding 10 μL of cold ethanol. The analysis of sialylated product conversion was performed using the HPLC system as described above for sialyltransferase activity assay. The 4-methylumbelliferone (MU)-labeled fluorescent acceptor and the product formed were detected with excitation at 325 nm and emission at 372 nm. The 2-aminobenzoic acid (2AA)-labeled fluorescent acceptors and the products formed were detected with excitation at 315 nm and emission at 400 nm. The 9-fluorenylmethylcarbamate (Fmoc)-labeled fluorescent acceptors and the products formed were detected with excitation at 262 nm and emission at 313 nm.

[6] = Kinetics of CMP-Neu5Ac donor hydrolysis activity (capillary electrophoresis); assay type: biochemical
Procedure: as §1, §2

[7] = varied LacβMU, CMP-Neu5Ac 1.0 mM, Tris-HCl pH 8.0, 20° C.

Question: For `Cc1cc(=O)oc2cc(O[C@@H]3O[C@H](CO)[C@@H](O[C@@H]4O[C@H](CO)[C@H](O)[C@H](O)[C@H]4O)[C@H](O)[C@H]3O)ccc12` [LacβMU], which Km [1, 7] is on record?
Answer: 0.41 mM

Question: What about the kcat [1, 7] of the same molecule?
Answer: (1.0 ± 0.1) × 10^2 min^−1

Question: What about the Km ([2]; acceptor LacβMU) of the same molecule?
Answer: 0.36 mM

Question: And the kcat ([2]; acceptor LacβMU)?
Answer: (1.0 ± 0.1) × 10^2 min^−1

Question: With `CC(=O)N[C@H]1[C@@H](OC[C@H](N)C(=O)O)O[C@H](CO)[C@H](O)[C@@H]1O` [GalNAcαOSer] as the molecule, how does the Km ([1]; varied GalNAcαSer, CMP-Neu5Ac 2.0 mM, Tris-HCl pH 8.0, 20° C.) read?
Answer: 1.7 ± 0.7 mM

Question: And the Km ([2]; acceptor GalNAcαOSer)?
Answer: 1.4 ± 0.1 mM

Question: Which results are given for GalNAcα2AA?
Answer: Km ([1]; varied GalNAcα2AA, CMP-Neu5Ac 4.0 mM, NaOAc-HOAc pH 5.0, 20° C.): 5.5 ± 1 mM; Km ([2]; acceptor GalNAcα2AA): 9.5 ± 2.7 mM

Question: What does the source list for `CC(=O)N[C@H]1[C@@H](O[C@H](C)[C@H](N)C(=O)O)O[C@H](CO)[C@H](O)[C@@H]1O` [GalNAcαOThr]?
Answer: Km ([1]; varied GalNAcαThr, CMP-Neu5Ac 4.0 mM, Tris-HCl pH 8.0, 20° C.): 7.2 ± 3 mM; Km ([2]; acceptor GalNAcαOThr): 5.9 ± 1.6 mM

B1: Photobacterium sp. JH-ISH-224 α2-6-sialyltransferase Psp2,6ST(15-501)-His6 A235D mutant, SEQ ID NO: 14 (Photobacterium sp. JT-ISH-224; A235D) (protein)
chain: CNNSEENTQSIIKNDINKTIIDEEYVNLEPINQSNISFTKHSWVQTCGTQQLLTEQNKESISLSVVAPRLDDDEKYCFDFNGVSNKGEKYITKVTLNVVAPSLEVYVDHASLPTLQQLMDIIKSEEENPTAQRYIAWGRIVPTDEQMKELNITSFALINNHTPADLVQEIVKQAQTKHRLNVKLSSNTAHSFDNLVPILKELNSFNNVTVTNIDLYDDGSDEYVNLYNWRDTLNKTDNLKIGKDYLEDVINGINEDTSNTGTSSVYNWQKLYPANYHFLRKDYLTLEPSLHELRDYIGDSLKQMQWDGFKKFNSKQQELFLSIVNFDKQKLQNEYNSSNLPNFVFTGTTVWAGNHEREYYAKQQINVINNAINESSPHYLGNSYDLFFKGHPGGGIINTLIMQNYPSMVDIPSKISFEVLMMTDMLPDAVAGIASSLYFTIPAEKIKFIVFTSTETITDRETALRSPLVQVMIKLGIVKEENVLFWA
Question: Which kcat [3] does the source give for B1 here?
Answer: 4.17 ± 0.333 s⁻¹

B2: W365A: Psp26ST(15-501)-His6 with W365A point mutation; SEQ ID NO: 6 (protein)
chain: B1 chain with D221A, W351A
modifications: C-terminal His6; Synthetic Psp26ST(15-501) W365A
Question: Which “yield of Neu5Acα2-6GalNAcαThr from GalNAcαThr, OP2E” value [4] does the source give for B2 here?
Answer: 85%

B3: A124D: Psp26ST(15-501)-His6 with A124D point mutation; SEQ ID NO: 12 (protein)
chain: B1 chain with A110D, D221A
modifications: C-terminal His6; Synthetic Psp26ST(15-501) A124D
Question: With B3 as the molecule, how does the “sialylation activity compared to wild-type” value [5] read?
Answer: lost sialylation activity

B4: A235D: Psp26ST(15-501)-His6 with A235D point mutation; SEQ ID NO: 14 (protein)
chain: B1 chain
modifications: C-terminal His6; Synthetic Psp26ST(15-501) A235D
Question: With B4 as the molecule, how does the “sialylation activity compared to wild-type” value [5] read?
Answer: maintaining most of the sialylation activity

Question: And the “donor hydrolysis activity compared to wild-type” value [6]?
Answer: decreased donor hydrolysis activity

B5: W365G: Psp26ST(15-501)-His6 with W365G point mutation; SEQ ID NO: 4 (protein)
chain: B1 chain with D221A, W351G
modifications: C-terminal His6; Synthetic Psp26ST(15-501) W365G
Question: Which “yield of Neu5Acα2-6GalNAcαThr from GalNAcαThr, OP2E” value [4] does the source give for B5 here?
Answer: 91%

B6: R153G: Psp26ST(15-501)-His6 with R153G point mutation; SEQ ID NO: 10 (protein)
chain: B1 chain with R139G, D221A
modifications: C-terminal His6; Synthetic Psp26ST(15-501) R153G
Question: Which “sialylation activity compared to wild-type” value [5] does the source give for B6 here?
Answer: knocked out the sialylation activity completely
